The values below come from US20230339886A1 (University of Florida Research Foundation, Incorporated, priority 2020, published 2023).

A value given as a limit tells only on which side of the number the result lay.

The first test deals with T1, REV-ERBα LBD (human; residues 281-614 Δ324-422) (Homo sapiens, UniProt P20393, DEL324-422).
T1 construct: 6×Histag-REV-ERBα LBD (human; residues 281-614 Δ324-422); made in house; host or cells: Escherichia coli
T1 sequence (P20393 with tags, fused parts or gaps DEL324-422): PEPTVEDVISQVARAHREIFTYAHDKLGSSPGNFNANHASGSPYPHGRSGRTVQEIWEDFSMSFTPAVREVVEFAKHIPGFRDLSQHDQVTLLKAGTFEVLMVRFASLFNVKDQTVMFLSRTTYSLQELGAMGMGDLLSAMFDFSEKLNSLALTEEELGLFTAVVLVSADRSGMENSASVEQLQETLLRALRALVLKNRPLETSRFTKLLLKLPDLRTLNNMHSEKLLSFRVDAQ
T1 sequence (Q9Y618 2335-2356 partner limits assumed): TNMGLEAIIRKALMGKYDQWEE
The experiment in a line: TR-FRET corepressor interaction assay (REV-ERBα LBD, FITC-SMRT peptide). The class given is biochemical. As to conditions: FITC-SMRT peptide, read-out: REVERBα agonism (EC50 class, FRET assay). Here is the method: TR-FRET corepressor interaction assay. The time-resolved fluorescence resonance energy transfer (TR-FRET) assay was performed in black low-volume 384-well plates (Greiner). […] Ligand stocks were prepared via serial dilution in DMSO, added to wells in triplicate, and plates were incubated at 4° C. for 2 h and read using a BioTek Synergy Neo multimode plate reader. The Tb donor was excited at 340 nm; its fluorescence emission was monitored at 495 nm, and the acceptor FITC emission was measured at 520 nm; and the TR-FRET ratio was calculated as the signal at 520 nm divided by the signal at 495 nm. Data were plotted using GraphPad Prism as TR-FRET ratio vs. ligand concentration and fit to sigmoidal dose response curve equation.
As for `CC(C)(C)Cn1cc([C@H](NS(=O)(=O)C2CCC2)C(F)(F)F)c2cc(F)c(C3CCCC3)cc21` [Example 428, (S)—N-(1-(6-cyclopentyl-5-fluoro-1-neopentyl-1H-indol-3-yl)-2,2,2-trifluoroethyl)cyclobutanesulfonamide], the EC50 was less than 500 nM. The same measure, in the same setting: as for `CC(C)(C)Cn1cc(CCNS(=O)(=O)C2CC2)c2ccc(-c3cccc(C#N)c3Cl)cc21` [Example 486, N-(2-(6-(2-chloro-3-cyanophenyl)-1-neopentyl-1H-indol-3-yl)ethyl)cyclopropanesulfonamide], the figure is 500 to 3000 nM. On to `CC(C)(CO)Cn1cc([C@H](NS(=O)(=O)C2CC2)C(F)(F)F)c2cc(F)c(-c3ccccc3C(F)(F)F)cc21` [Example 490, N-[(1S)-2,2,2-trifluoro-1-[5-fluoro-1-(3-hydroxy-2,2-dimethyl-propyl)-6-[2-(trifluoromethyl)phenyl]indol-3-yl]ethyl]cyclopropanesulfonamide], for which the EC50 was 500 to 3000 nM.

For the compound `NC(=O)c1cccc(F)c1-c1ccc2c([C@H](NS(=O)(=O)C3CCC3)C(F)(F)F)cn(C3CCC3)c2c1` [Example 439, (S)-2-(3-(1-(cyclobutanesulfonamido)-2,2,2-trifluoroethyl)-1-cyclobutyl-1H-indol-6-yl)-3-fluorobenzamide], the EC50 lay within 500 to 3000 nM.

Staying with this test, now noted: Table 2, read-out: REVERBα agonism (EC50 class, FRET assay).
Consider `CN(C)S(=O)(=O)NCCn1cc(CC(F)(F)C(F)(F)F)c2cc(Cl)ccc21` [Example 153, N-{2-[5-chloro-3-(2,2,3,3,3-pentafluoropropyl)-1H-indol-1-yl]ethyl}-N,N-dimethylsulfuric diamide], for which the EC50 lay within 500 to 3000 nM. The same measure, in the same setting: for `CC(C)(C)Cn1cc([C@H](NS(=O)(=O)C2CC2)C(F)(F)F)c2ccc(-c3ccncc3C#N)cc21` [Example 384, (S)—N-(1-(6-(3-cyanopyridin-4-yl)-1-neopentyl-1H-indol-3-yl)-2,2,2-trifluoroethyl)cyclopropanesulfonamide] the value was less than 500 nM. As to `Cc1c(CCNS(=O)(=O)N(C)C)c2ccc(-c3ccncc3)cc2n1CC(C)C` [Example 41, dimethyl({2-[2-methyl-1-(2-methylpropyl)-6-(pyridin-4-yl)-1H-indol-3-yl]ethyl}sulfamoyl)amine], the EC50 is greater than 3000 nM. On the same count and under the same terms, for `O=S(=O)(NCCc1cn(CC2CCCC2)c2cc(-c3ccncc3Cl)ccc12)C1CC1` [Compound 281] the value was less than 500 nM; for `COc1ccc2cc(-c3ccc4c(c3)c(CC(C)(C)C)cn4CCNS(=O)(=O)C3CC3)ccc2c1` [Compound 220], greater than 3000 nM. The same measure, in the same setting: as for `CC(C)Cn1cc(CCN(C(C)C)S(=O)(=O)C(C)C)c2ccc(-c3ccncc3)cc21` [Compound 277], the figure is less than 500 nM.

For `CC(C)S(=O)(=O)N[C@@H](c1cn(CC(C)(C)C)c2cc(-c3ccccc3C(F)(F)F)c(F)cc12)C(F)(F)F` [Example 348, (S)—N-(2,2,2-trifluoro-1-(5-fluoro-1-neopentyl-6-(2-(trifluoromethyl)phenyl)-1H-indol-3-yl)ethyl)propane-2-sulfonamide], the EC50 is 500 to 3000 nM. On the same count and under the same terms, for `CC(C)(C)Cn1cc([C@H](NS(=O)(=O)C2(C)CC2)C(F)(F)F)c2cc(F)c(-c3ccccc3C(F)(F)F)cc21` [Example 375, (S)-1-methyl-N-(2,2,2-trifluoro-1-(5-fluoro-1-neopentyl-6-(2-(trifluoromethyl)phenyl)-1H-indol-3-yl)ethyl)cyclopropane-1-sulfonamide] the value was less than 500 nM; for `CC(C)C(=O)n1cc(CNS(=O)(=O)N(C)C)c2ccc(-c3ccccc3C(F)(F)F)cc21` [Example 185, 1-(3-{[(dimethylsulfamoyl)amino]methyl}-6-[2-(trifluoromethyl)phenyl]-1H-indol-1-yl)-2-methylpropan-1-one], less than 500 nM; for `CN(C)S(=O)(=O)NCCc1cn(CCC(F)(F)F)c2cc(-c3ccncc3)ccc12` [Example 179, dimethyl({2-[6-(pyridin-4-yl)-1-(3,3,3-trifluoropropyl)-1H-indol-3-yl]ethyl}sulfamoyl)amine], less than 500 nM.

Regarding `CC(C)(C)Cc1cn(CCNS(=O)(=O)C2CC2)c2ccc(-c3ccccn3)cc12` [Example 304, N-(2-(3-neopentyl-5-(pyridin-2-yl)-1H-indol-1-yl)ethyl)cyclopropanesulfonamide], the EC50 lay in the range of 500 to 3000 nM.

Turning to `Cc1ccccc1-c1ccc2c(CCNS(=O)(=O)N(C)C)cn(CC(C)C)c2c1` [Example 46, N-{2-[6-(2-methylphenyl)-1-(2-methylpropyl)-1H-indol-3-yl]ethyl}-N,N-dimethylsulfuric diamide], the concentration giving a half-maximal response (EC50) is less than 500 nM. Still for that read-out and setting: for `CC(C)Cn1cc([C@H]2C[C@H]2NS(=O)(=O)C(C)C)c2ccc(-c3ccccc3)cc21` [Compound 259] the value was greater than 3000 nM; for `Cc1cccc(C#N)c1-c1ccc2c([C@H](NS(=O)(=O)C3CC3)C(F)(F)F)cn(CC(C)(C)C)c2c1` [Example 390, (S)—N-(1-(6-(2-cyano-6-methylphenyl)-1-neopentyl-1H-indol-3-yl)-2,2,2-trifluoroethyl)cyclopropanesulfonamide], less than 500 nM; for `CC(C)(C)Cc1cn(CCNS(=O)(=O)C2CC2)c2ccc(-c3ccc(Cl)cc3C#N)cc12` [Example 401, N-(2-(5-(4-chloro-2-cyanophenyl)-3-neopentyl-1H-indol-1-yl)ethyl)cyclopropanesulfonamide], less than 500 nM. For `CN(C)S(=O)(=O)NCCc1cn(C(=O)C(C)(C)C)c2cc(-c3ccncc3)ccc12` [Compound 156, 1-(3-{2-[(dimethylsulfamoyl)amino]ethyl}-6-(pyridin-4-yl)-1H-indol-1-yl)-2,2dimethylpropan-1-one], the EC50 is greater than 3000 nM. As for `CC(C)Cn1cc(-c2cnn(S(=O)(=O)C(C)C)c2)c2ccc(-c3ccccc3)cc21` [Example 63, 1-isobutyl-3-(1-(isopropylsulfonyl)-1H-pyrazol-4-yl)-6-phenyl-1H-indole], the EC50 is greater than 3000 nM. `CC(C)Cn1cc(CCNS(=O)(=O)N(C)C)c2ccc(C3CCC3)cc21` [Example 108, ({2-[6-cyclobutyl-1-(2-methylpropyl)-1H-indol-3-yl]ethyl}sulfamoyl)dimethylamine]: the EC50 is less than 500 nM. As to `CC(C)(C)Cn1cc([C@H](NS(=O)(=O)C2CC2)C(F)(F)F)c2cc(C(F)(F)F)c(Br)cc21` [Example 376, (S)—N-(1-(6-bromo-1-neopentyl-5-(trifluoromethyl)-1H-indol-3-yl)-2,2,2-trifluoroethyl)cyclopropanesulfonamide], the EC50 was greater than 3000 nM. The same measure, in the same setting: as for `CC(C)Cn1cc([C@H](NS(=O)(=O)C2CC2)C(F)(F)F)c2ccc(-c3ccccc3Cl)cc21` [Example 311, (S)—N-(1-(6-(2-chlorophenyl)-1-isobutyl-1H-indol-3-yl)-2,2,2-trifluoroethyl)cyclopropanesulfonamide], the figure is less than 500 nM; as for `CC(C)(C)Cn1cc(CCNS(=O)(=O)C2CC2)c2ccc(-c3ccc(F)cc3C(F)(F)F)cc21` [Example 395, N-(2-(6-(4-fluoro-2-(trifluoromethyl)phenyl)-1-neopentyl-1H-indol-3-yl)ethyl)cyclopropanesulfonamide], less than 500 nM.

Regarding `CC(C)(C)Cn1cc(CCNS(=O)(=O)C2CC2)c2ccc(-c3ccc(Cl)cc3Cl)cc21` [Example 397, N-(2-(6-(2,4-dichlorophenyl)-1-neopentyl-1H-indol-3-yl)ethyl)cyclopropanesulfonamide], the EC50 is less than 500 nM.
